Data from US6734292B1, “Pseudoerythromycin derivatives” (The Kitasato Institute, priority 2002, dated 2004).
“And” between values parts separate entries of the source, which are not always exact repeats. Equal values may be shown once.

What was measured:
[1] = tested on: influenza virus-induced pneumonia; assay: suppressive effect against pneumonia caused by influenza viral infection (mice influenza pneumonia model); assay type: in vivo
Experimental: Next, the suppressive effect of the compound EM703 against pneumonia caused by influenza viral infection was examined.
Sample was dissolved in physiological saline containing 1% DMSO and amount corresponding to oral dosage of the small administration for long-term therapy was administered from day-1 to day-6 of the infection to mice influenza pneumonia model (0.3 mg and 0.03 mg/mice), once a day, intraperitoneally. Results were compared with control group which was given only solvent.
In this system, mice developed pneumonia and almost died about 20 days after infection. […] This indicates suppressive effect against pneumonia and result to cure pneumonia.

[2] = tested on: bleomycin-induced pulmonary fibrosis; assay: suppressive effect against bleomycin-induced pulmonary fibrosis (hydroxyproline levels in tissue); assay type: in vivo, mice; conditions: for Hydroxyproline levels in tissue, Assay result / Hydroxyproline levels in tissue, Weight conversion: day-28, individual mice
THP-1 cells = assay: enhancing effect for differentiation-induction from human monocyte to macrophage (THP-1/Mφ system, MTT readout); assay type: cell-based; set-up: key: ++: enhanced 100% or more; +: enhanced 50-100%; ±: enhanced 25-50%; −: no activity; /: expressed cytoxicity; NT: not tested or under assessment; conditions: in comparison with enhancing action for differentiation-induction of EM 100 μM
Experimental: In order to confirm enhancing effect for differentiation-induction of the compounds of the present invention, the enhancing effect for differentiation-induction from human monocyte to macrophage was assayed. Method is performed as follows. THP-1 cells were collected from cultured liquid by centrifugation, adjusted the concentration to 2×10^5 cells/ml using medium (RPMI 1640) and distributed into the 48-well plate at 500 μl/well. PMA solution 10 μl and sample solution 5 μl were added in each well, stirred with mild shaking and incubated at 37° C. for 72-96 hours under 5% CO2. Further MTT 0.5 mg/ml solution was added at 300 μl/well, and incubated at 37° C. for 3 hours under 5% CO2. Supernatant solution was suctioned using the injection tube, added DMSO 500 μl using automatic continuous injector to dissolve formazan completely and transferred each 100 μl to the 96-well plate. The optical absorption was measured using the plate-reader.

[3] = BLM + EM703 group: BLM 100 mg/kg tail vein day-0, EM703 50 mg/kg/day orally for 17 days
[4] = EM703 group (no BLM), 50 mg/kg/day orally, 50 mg/kg/day

| Compound | survival of mice ([1]; EM703 0.3 mg/mice intraperitoneally once a day, day-1 to day-6 of infection, control mice almost died about 20 days after infection, FIG. 2) [%] | body weight ([1]; administration of EM703 intraperitoneally, control showed significant decrease of body weight, FIG. 3) | suppressive effect against influenza virus-induced pneumonia ([1]; mice influenza pneumonia model, 0.3 mg/mice) | Hydroxyproline levels in tissue, Assay result [2, 3] | Hydroxyproline levels in tissue, Weight conversion [2, 3] | Hydroxyproline level, an index for lung injury, BLM+EM703 group versus BLM administered group ([2]; EM703 50 mg/kg/day orally, BLM 100 mg/kg) | Hydroxyproline levels in tissue, Assay result [2, 4] | Hydroxyproline levels in tissue, Weight conversion [2, 4] | activities in THP-1/Mφ system, Treated conc. 0.3 μM (THP-1 cells) | activities in THP-1/Mφ system, Treated conc. 1 μM (THP-1 cells) | activities in THP-1/Mφ system, Treated conc. 3 μM (THP-1 cells) | activities in THP-1/Mφ system, Treated conc. 10 μM (THP-1 cells) | melting point [°C] |
| --- | --- | --- | --- | --- | --- | --- | --- | --- | --- | --- | --- | --- | --- |
| CC[C@H]1O[C@]2(O)O[C@H]([C@@H](C)C3O[C@@](C)(C[C@@H]3C)[C@H](O[C@@H]3OC(C)CC(NC)C3O)[C@@H](C)[C@H](O[C@H]3CC(C)(OC)[C@@H](O)C(C)O3)[C@H]2C)[C@]1(C)O (stereo partly shown) [EM703, de(3′-N-methyl)-8,9-anhydro-pseudoerythromycin A 6,9-hemiketal] | 40 | increase body weight from day-10 | cured pneumonia | 583 µmol/L and 495 µmol/L and 437 µmol/L and 314 µmol/L | 5.2 µmol/g and 4.5 µmol/g and 4.4 µmol/g and 2.9 µmol/g | reduced | 552 µmol/L and 489 µmol/L and 591 µmol/L | 5.0 µmol/g and 4.6 µmol/g and 5.4 µmol/g | + (enhanced 50-100%) | + (enhanced 50-100%) | + (enhanced 50-100%) | + (enhanced 50-100%) |  |
| CC[C@H]1O[C@]2(O)O[C@H]([C@@H](C)C3O[C@@](C)(C[C@@H]3C)[C@H](O[C@@H]3OC(C)CC(N4CCCCC4)C3O)[C@@H](C)[C@H](O[C@H]3CC(C)(OC)[C@@H](O)C(C)O3)[C@H]2C)[C@]1(C)O (stereo partly shown) [EM734, de(3′-dimethylamino)-3′-piperidino-8,9-anhydro-pseudoerythromycin A 6,9-hemiketal] |  |  |  |  |  |  |  |  | − | ± (enhanced 25-50%) | + (enhanced 50-100%) | + (enhanced 50-100%) | 128 to 130 |
| CCCCCCNC1CC(C)O[C@@H](O[C@@H]2[C@@H](C)[C@H](O[C@H]3CC(C)(OC)[C@@H](O)C(C)O3)[C@@H](C)[C@@]3(O)O[C@H]([C@@H](C)C4O[C@@]2(C)C[C@@H]4C)[C@](C)(O)[C@@H](CC)O3)C1O (stereo partly shown) [EM738, bis-de(3′-N-methyl)-3′-N-hexyl-8,9-anhydro-pseudoerythromycin A 6,9-hemiketal] |  |  |  |  |  |  |  |  | − | ± (enhanced 25-50%) | + (enhanced 50-100%) |  | 115 to 118 |
| CCCCCCN(CCCCCC)C1CC(C)O[C@@H](O[C@@H]2[C@@H](C)[C@H](O[C@H]3CC(C)(OC)[C@@H](O)C(C)O3)[C@@H](C)[C@@]3(O)O[C@H]([C@@H](C)C4O[C@@]2(C)C[C@@H]4C)[C@](C)(O)[C@@H](CC)O3)C1O (stereo partly shown) [EM739, bis-de(3′-N-methyl)-3′,3′-N,N-dihexyl-8,9-anhydro-pseudoerythromycin A 6,9-hemiketal] |  |  |  |  |  |  |  |  | − | ± (enhanced 25-50%) | + (enhanced 50-100%) | + (enhanced 50-100%) | 158 to 160 |
| CC[C@H]1O[C@]2(O)O[C@H]([C@@H](C)C3O[C@@](C)(C[C@@H]3C)[C@H](O[C@@H]3OC(C)CC(N4CCCCCC4)C3O)[C@@H](C)[C@H](O[C@H]3CC(C)(OC)[C@@H](O)C(C)O3)[C@H]2C)[C@]1(C)O (stereo partly shown) [EM748, de(3′-dimethylamino)-3′-[hexahydro-1(1H)-azepinyl]-8,9-anhydro-pseudoerythromycin A 6,9-hemiketal] |  |  |  |  |  |  |  |  | − | ± (enhanced 25-50%) | ++ (enhanced 100% or more) | ++ (enhanced 100% or more) | 120 to 123 |
